Results from US20130202719A1, “STABILIZED CHLORITE SOLUTIONS IN COMBINATION WITH FLUROPYRIMIDINES FOR CANCER” (NUVO RESEARCH AG, priority 2005, published 2013).

Experiments:
DPD = target: T1, DPD (Homo sapiens, UniProt Q12882); conditions: in vivo; cited from earlier work
T1 construct: More than 80% of an administered dose of 5-FU is eliminated by catabolism through DPD
T1 sequence (Q12882 4-1025): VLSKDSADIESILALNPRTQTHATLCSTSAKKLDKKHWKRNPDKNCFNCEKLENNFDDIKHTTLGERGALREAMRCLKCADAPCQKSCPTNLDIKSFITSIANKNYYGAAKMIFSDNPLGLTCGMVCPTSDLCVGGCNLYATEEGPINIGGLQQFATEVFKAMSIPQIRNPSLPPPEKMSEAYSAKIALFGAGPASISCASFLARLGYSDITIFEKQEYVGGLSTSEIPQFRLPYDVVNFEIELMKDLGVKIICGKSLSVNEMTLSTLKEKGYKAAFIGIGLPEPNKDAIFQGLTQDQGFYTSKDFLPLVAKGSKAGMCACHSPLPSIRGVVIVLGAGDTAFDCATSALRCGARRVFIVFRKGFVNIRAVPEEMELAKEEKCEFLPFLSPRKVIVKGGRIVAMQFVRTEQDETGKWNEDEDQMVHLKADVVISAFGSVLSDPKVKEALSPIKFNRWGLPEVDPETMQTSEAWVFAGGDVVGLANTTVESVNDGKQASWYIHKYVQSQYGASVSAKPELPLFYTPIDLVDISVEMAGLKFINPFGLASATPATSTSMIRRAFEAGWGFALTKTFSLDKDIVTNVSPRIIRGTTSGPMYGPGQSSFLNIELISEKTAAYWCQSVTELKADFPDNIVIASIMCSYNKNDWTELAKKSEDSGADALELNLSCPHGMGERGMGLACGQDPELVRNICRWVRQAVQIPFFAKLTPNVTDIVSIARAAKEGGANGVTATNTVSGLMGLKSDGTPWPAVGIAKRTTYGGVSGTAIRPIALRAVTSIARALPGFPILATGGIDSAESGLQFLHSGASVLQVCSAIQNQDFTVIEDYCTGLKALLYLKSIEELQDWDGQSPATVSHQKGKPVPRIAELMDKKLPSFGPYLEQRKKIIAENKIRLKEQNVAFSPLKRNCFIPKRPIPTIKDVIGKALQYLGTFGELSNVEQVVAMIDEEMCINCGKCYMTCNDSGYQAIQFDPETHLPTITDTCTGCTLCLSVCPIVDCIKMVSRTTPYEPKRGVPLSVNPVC

[1] = phase II study, advanced or metastatic pancreatic cancer; cited from earlier work

O=c1[nH]cc(F)c(=O)[nH]1 [5-FU, 5-Fluorouracil]
administered dose eliminated by catabolism through DPD (DPD): More than 80%

CCCCCOC(=O)Nc1nc(=O)n([C@@H]2O[C@H](C)[C@@H](O)[C@H]2O)cc1F [capecitabine]
side effects (human, in vivo): development of Xeloda-related side effects | Median survival [1]: 182 days

Nc1ccn([C@@H]2O[C@H](CO)[C@@H](O)C2(F)F)c(=O)n1 [gemcitabine]
disease progression (Case Report #3): rapidly progressing metastasis | QOL (Case Report #3, T4NxM1): declining QOL
